# Key:
# [1] = molecular target: T1, AVR4(C122S); also printed AVR4(C112S) (Gallus gallus, UniProt P56734, C146S); assay: SDS-PAGE thermostability of acylated protein; format: binding; details: thermal shift of subunit dissociation; Tr without biotin 90 °C; 140 µM D-biotin
# T1 construct: recombinant AVR4 with cysteine-to-serine change, tetramer
# Source text: SDS-PAGE thermostability of acylated protein on AVR4(C122S); also printed AVR4(C112S)
# [2] = molecular target: chimeric dual-chain avidin dcAVD/AVR4 (tandem fusion of circularly permuted avidin cp54 and circularly permuted AVR4 cp65) (chicken); assay: SEC; Superdex 75 10/300 GL, 50 ug protein in 50 mM NaPO4 pH 7, 650 mM NaCl; column calibrated with Bio-Rad standards 1.5-67 kDa; dimer of the dual-chain polypeptide (pseudotetramer)
# T1 sequence (P56734 25-150 C146S): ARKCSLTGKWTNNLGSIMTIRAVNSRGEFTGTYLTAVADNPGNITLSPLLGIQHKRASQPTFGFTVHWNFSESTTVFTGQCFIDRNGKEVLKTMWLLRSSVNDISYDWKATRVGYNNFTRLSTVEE
stoichiometry N [2],Compound,SDS-PAGE / Tr ^(+BTN) (°C) [1]
–,O=C(O)CCCC[C@@H]1SC[C@@H]2NC(=O)N[C@@H]21 [D-biotin],95 °C
2,chimeric dual-chain avidin dcAVD/AVR4 (tandem fusion of circularly permuted avidin cp54 and circularly permuted AVR4 cp65),–
